Experimental findings from ChEMBL document CHEMBL1201862, “PubChem BioAssay data set” (2004) are described below.

One data set can be described thus: cells. Format: functional.
A further data set relates to P388/ADR. Description: cells. In kind it is functional. The following applies: Mus musculus.
The next data set concerns SN12K1. Description: cells. Format: functional. The settings on record: Homo sapiens.
The test system of a further data set is P388. The data set is described as follows: cells. In kind it is functional. The following applies: Mus musculus.
In the next data set the target is T1, Aminopeptidase N (Plasmodium falciparum FcB1/Columbia, UniProt O96935).
T1 sequence (O96935 whole entry): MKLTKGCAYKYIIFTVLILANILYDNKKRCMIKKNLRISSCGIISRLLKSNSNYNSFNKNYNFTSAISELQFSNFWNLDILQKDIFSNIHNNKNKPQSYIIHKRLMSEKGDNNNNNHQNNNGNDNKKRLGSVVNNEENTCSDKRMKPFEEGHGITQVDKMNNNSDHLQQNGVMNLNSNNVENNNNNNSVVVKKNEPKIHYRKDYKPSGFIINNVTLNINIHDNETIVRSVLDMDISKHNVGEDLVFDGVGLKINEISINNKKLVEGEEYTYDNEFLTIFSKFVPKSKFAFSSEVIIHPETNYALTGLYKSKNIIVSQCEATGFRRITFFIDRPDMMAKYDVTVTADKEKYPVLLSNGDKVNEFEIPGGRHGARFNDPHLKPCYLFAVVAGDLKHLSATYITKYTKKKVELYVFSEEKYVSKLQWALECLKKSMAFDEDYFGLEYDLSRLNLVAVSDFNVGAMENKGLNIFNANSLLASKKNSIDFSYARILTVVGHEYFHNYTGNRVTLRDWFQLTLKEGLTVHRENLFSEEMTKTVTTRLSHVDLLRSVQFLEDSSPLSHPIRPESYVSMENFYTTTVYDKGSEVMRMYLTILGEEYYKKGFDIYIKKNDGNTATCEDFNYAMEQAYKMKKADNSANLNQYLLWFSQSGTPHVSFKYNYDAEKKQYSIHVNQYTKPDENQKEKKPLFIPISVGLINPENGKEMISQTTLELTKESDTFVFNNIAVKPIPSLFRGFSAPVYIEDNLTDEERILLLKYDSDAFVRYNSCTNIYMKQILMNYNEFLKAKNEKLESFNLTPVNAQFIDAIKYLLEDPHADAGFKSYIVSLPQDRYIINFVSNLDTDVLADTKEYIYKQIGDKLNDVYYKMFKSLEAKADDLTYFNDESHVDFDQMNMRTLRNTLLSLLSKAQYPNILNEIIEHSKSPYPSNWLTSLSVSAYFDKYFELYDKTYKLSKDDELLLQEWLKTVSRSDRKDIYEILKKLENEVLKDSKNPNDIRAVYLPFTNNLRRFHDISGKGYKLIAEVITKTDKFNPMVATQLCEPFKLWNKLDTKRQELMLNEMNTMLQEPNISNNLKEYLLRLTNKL
The data set is described as follows: malaria alanyl aminopeptidase activity blockers – biochemical, fluorogenic H-Leu-NHMec substrate, 1536-well (AID 1445). Set-up: species or system Plasmodium falciparum 3D7, 3D7.

The next data set has as its target Genome polyprotein (dengue virus type 2, UniProt P29990). The data set is described as follows: flavivirus cap methylation enzyme inhibition – biochemical, confirmation dose response, primary screen (AID 588689). Format: functional.
Data set [1] is described as follows: viability of PTEN-deleted HCT116 cells – cell-based, HCT116 PTEN knockout, dose response (AID 1047).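 Note: HCT116 colon tumor cells with PTEN knocked out; cells exposed to compound for 60 hours before readout; potency for loss of cell viability measured by luminescence.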 In kind it is functional.
Data set [2] can be described thus: viability of HCT116 lacking mutant beta-catenin – cell-based, human colon tumor, dose response (AID 1045).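 Note: HCT116 colon tumor cells with beta catenin knocked out; cells exposed to compound for 60 hours.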 Format: functional.
A further data set addresses Cytochrome P450 3A4 (Homo sapiens, UniProt P08684).
The next data set has as its target Cytochrome P450 2C9 (Homo sapiens, UniProt P11712).
For the next data set, the target named is Cytochrome P450 2C19 (Homo sapiens, UniProt P33261). Description: Cytochrome panel assay with activity outcomes. Panel member name: p450-cyp2c19 Compounds with AC50 equal or less than 10 uM are considered active. In kind it is functional. The following applies: read-out: AC50.
Cytochrome P450 2C19, sequence (P33261 whole entry): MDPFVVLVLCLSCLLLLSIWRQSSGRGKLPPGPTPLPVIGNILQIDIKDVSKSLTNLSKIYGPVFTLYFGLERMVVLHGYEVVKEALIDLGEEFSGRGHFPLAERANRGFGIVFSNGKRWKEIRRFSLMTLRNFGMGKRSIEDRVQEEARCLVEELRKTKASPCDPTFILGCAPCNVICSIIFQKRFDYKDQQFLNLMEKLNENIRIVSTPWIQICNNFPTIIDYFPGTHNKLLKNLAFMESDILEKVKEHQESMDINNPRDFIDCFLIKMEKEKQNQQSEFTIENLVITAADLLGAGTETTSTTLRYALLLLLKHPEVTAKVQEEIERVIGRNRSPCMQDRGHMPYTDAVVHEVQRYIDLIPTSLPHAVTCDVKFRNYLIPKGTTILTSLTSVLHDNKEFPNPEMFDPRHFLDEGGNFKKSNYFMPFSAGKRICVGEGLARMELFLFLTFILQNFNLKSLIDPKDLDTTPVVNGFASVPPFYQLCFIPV
Data set [3] has as its system BJ. The data set is described as follows: BJ-TERT fibroblast viability loss – cell-based, RAS-independent, luminescence, dose response (AID 1933). Format: functional. The settings on record: Homo sapiens.
Data set [4] concerns BJ. The data set is described as follows: cells. In kind it is functional, cell-based. The settings on record: Homo sapiens.
Data set [5] has as its system BJ. Description: BJ-TERT-LT-ST fibroblast viability loss – cell-based, RAS-independent, luminescence, dose response (AID 1935).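 Note: BJ fibroblasts immortalized with TERT plus LT and ST oncogenes.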 The settings on record: Homo sapiens. Format: functional.
The nature of data set [6]: DRD fibroblast viability loss – cell-based, non-viral oncogenic, luminescence, dose response (AID 1934). The following applies: Homo sapiens. In kind it is functional.
For data set [7], the target named is T2, Ubiquitin-conjugating enzyme E2 N (Homo sapiens, UniProt P61088).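 Note: Dose-response confirmation in a TR-FRET assay detecting UBC13-driven polyubiquitin chain formation, inhibition measured.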
T2 sequence (P61088 whole entry): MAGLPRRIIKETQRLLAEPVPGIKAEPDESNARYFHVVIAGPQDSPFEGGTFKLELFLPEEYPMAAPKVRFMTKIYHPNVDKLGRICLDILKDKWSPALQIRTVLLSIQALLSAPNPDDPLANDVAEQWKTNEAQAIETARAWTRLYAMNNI
In kind it is functional.

Data set [8] can be described thus: reduction of Shn3 3'UTR-driven luciferase in osteoblasts – cell-based, Clone20 osteoblasts, firefly luciferase, cherry-picked, dose response (AID 624132).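 Note: firefly luciferase luminescence from reporter carrying the Shn3 3'UTR in osteoblasts.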 Format: functional.
The nature of data set [9]: loss of viability in HepG2 cells – cell-based, CellTiter-Glo, cherry-picked, cytotoxicity control for Shn3 inhibitor project, dose response (AID 624134). In kind it is functional. (In general: ATP-based viability assays read luminescence as a measure of living cells.)
The nature of data set [10]: non-specific 3'UTR reporter inhibition in Clone20-Shn3RL – cell-based, Renilla luciferase, cherry-picked, counter-screen for Shn3 inhibitor project, dose response (AID 624133). In kind it is functional. In general terms: A counterscreen serves to expose hits that act by an unwanted route or on another target.
Another data set concerns the target T3, Cytochrome P450 1A2 (Homo sapiens, UniProt P05177).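 Note: PubChem cytochrome P450 panel assay, CYP1A2 panel member.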
T3 sequence (P05177 whole entry): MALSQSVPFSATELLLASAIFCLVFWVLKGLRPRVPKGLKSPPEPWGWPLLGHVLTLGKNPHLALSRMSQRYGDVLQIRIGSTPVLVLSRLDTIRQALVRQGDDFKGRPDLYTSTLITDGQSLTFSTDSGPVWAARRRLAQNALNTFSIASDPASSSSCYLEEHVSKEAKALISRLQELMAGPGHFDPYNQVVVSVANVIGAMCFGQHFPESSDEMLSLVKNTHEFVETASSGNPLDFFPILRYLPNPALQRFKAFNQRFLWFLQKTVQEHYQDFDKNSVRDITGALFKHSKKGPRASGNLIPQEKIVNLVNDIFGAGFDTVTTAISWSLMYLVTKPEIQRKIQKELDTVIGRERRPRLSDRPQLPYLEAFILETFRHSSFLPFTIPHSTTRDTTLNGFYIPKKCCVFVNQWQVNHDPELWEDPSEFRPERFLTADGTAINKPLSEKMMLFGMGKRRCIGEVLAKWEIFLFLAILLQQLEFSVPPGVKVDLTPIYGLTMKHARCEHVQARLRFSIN

Another data set deals with Cytochrome P450 2D6 (Homo sapiens, UniProt P10635).
Cytochrome P450 2D6, sequence (P10635 whole entry): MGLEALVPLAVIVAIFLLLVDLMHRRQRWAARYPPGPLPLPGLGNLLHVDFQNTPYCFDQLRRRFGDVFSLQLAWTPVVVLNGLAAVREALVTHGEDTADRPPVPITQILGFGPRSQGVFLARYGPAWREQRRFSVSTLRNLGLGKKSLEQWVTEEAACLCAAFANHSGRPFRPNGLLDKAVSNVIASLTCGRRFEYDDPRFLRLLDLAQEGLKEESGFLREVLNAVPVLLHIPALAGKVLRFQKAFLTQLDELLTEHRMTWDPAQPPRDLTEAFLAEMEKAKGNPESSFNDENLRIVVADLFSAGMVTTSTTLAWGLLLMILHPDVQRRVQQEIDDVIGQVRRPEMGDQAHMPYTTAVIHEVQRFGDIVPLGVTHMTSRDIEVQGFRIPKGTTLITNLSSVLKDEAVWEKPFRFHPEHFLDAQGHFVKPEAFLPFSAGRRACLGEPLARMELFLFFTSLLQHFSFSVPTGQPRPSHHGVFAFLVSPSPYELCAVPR

Calls of active or inactive are those of the source.

Cytochrome P450 2C9, sequence (P11712 whole entry): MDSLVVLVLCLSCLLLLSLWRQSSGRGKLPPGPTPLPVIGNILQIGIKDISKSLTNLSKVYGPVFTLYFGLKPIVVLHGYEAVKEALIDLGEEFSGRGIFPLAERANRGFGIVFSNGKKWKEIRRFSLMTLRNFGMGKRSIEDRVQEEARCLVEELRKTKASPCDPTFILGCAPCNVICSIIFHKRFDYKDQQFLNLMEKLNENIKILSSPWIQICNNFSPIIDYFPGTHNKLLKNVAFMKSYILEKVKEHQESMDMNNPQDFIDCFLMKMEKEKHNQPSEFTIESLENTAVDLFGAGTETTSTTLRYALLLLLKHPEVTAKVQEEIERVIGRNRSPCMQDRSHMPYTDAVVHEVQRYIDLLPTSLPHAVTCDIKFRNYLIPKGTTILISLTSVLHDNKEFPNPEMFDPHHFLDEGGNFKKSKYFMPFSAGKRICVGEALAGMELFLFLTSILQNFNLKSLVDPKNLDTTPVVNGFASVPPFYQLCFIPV
Cytochrome P450 3A4, sequence (P08684 whole entry): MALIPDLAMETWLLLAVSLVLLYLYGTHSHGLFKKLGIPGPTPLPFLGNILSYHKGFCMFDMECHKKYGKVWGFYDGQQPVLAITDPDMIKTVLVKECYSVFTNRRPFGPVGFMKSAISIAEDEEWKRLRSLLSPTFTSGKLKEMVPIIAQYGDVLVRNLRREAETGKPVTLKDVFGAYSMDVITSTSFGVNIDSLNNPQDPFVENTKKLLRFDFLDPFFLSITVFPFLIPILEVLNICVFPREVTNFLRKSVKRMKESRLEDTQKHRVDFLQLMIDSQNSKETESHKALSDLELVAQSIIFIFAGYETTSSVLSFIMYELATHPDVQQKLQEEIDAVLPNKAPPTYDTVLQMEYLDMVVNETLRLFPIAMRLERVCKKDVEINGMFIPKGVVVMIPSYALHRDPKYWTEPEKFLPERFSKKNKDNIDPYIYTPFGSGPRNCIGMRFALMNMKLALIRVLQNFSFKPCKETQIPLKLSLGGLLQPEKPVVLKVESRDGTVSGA
Genome polyprotein, sequence (P29990 2492-3391 limits assumed): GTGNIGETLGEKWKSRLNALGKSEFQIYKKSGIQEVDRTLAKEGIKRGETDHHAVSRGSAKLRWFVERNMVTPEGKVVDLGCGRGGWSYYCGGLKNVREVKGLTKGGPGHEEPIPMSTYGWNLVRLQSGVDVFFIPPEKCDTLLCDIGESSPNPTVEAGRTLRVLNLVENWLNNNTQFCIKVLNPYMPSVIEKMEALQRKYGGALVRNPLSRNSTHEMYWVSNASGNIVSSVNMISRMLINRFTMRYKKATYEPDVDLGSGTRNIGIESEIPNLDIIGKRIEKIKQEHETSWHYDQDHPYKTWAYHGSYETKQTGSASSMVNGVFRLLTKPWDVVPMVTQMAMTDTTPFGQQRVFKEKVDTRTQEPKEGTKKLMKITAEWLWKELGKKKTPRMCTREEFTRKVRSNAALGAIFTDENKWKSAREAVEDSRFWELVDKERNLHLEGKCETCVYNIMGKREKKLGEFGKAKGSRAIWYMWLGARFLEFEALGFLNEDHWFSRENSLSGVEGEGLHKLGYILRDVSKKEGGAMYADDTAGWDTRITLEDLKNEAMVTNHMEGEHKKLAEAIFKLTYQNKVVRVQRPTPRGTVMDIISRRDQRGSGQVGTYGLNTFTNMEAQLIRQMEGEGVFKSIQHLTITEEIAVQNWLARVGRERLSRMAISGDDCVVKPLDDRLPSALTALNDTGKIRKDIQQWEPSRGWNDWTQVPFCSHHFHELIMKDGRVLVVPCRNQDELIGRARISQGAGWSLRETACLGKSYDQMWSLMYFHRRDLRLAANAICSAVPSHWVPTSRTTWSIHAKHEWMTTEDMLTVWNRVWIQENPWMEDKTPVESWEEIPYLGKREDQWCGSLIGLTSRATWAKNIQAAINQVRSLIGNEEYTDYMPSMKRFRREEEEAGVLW

For the molecule `CCOC(=O)CNC(=O)N1c2ccccc2Sc2ccccc21`, the 50% inhibitory concentration (IC50) – broadly, the concentration that gives 50% inhibition – in “cells” is 1.95 µM (active).
On the same count and under the same terms, the value for `COc1cccc2cc(-c3nc4ccccc4[nH]3)c(=O)oc12` was < 0.1 µM (active).
For the molecule `CN1CCN(c2ccc3[nH]c(-c4ccc5[nH]c(-c6ccc(O)cc6)nc5c4)nc3c2)CC1`, the GI50 (commonly the concentration giving 50% growth inhibition) is 53.1 µM (inactive) with P388/ADR, 27 µM (inactive) in the data set on SN12K1 and 7.94 µM (inactive) in the data set on P388.
For the molecule `CSc1ncc(Cl)c(C(=O)C(C#N)c2nc3c(C)cc(C)cc3c(=O)[nH]2)n1` (configuration not stated), the IC50 on Aminopeptidase N was 84.5 µM (active).
Take `Cc1cccc(C2C3=C(O)c4ccccc4C3=Nc3nn(-c4ccccc4)c(O)c32)c1` (configuration not stated): the figures for the IC50 on Aminopeptidase N and at Genome polyprotein were 38.3 µM (active) and 59.4 µM (active), respectively.
As for `COCCCNC(=O)c1cc2c(=O)n(C)c3ccccc3c2n1C`, the EC50 (commonly the midpoint of the concentration-response curve) is 14.4 µM (active) in data set [1] and 15.4 µM (active) in data set [2].
Consider `COc1cc(/C=C/C(=O)O)cc(S(=O)(=O)NCc2ccc3c(c2)OCO3)c1OC`, for which, on Aminopeptidase N, the IC50 is 81.9 µM (active).
As to `COC(=O)c1ccccc1NC(=O)c1ccc(Cn2cc(Cl)cn2)o1`, the AC50 (in general, the concentration giving half of the maximal activity seen) on Cytochrome P450 3A4 is 10 µM (inconclusive); on Cytochrome P450 2C9 it was “inconclusive”.
As to `CN1OC(=O)N(C)C1c1ccccc1` (configuration not stated), the GI50 in the data set on P388/ADR, with SN12K1 and with P388 was > 100 µM (inactive) throughout.
On to `Cc1ccc(C)c(NC(=O)Cn2nnc(C(=O)Nc3c(C)cccc3C)c2N)c1`, for which the AC50 on Cytochrome P450 2C19 was 17.8 µM (inconclusive); at Cytochrome P450 2C9, “inconclusive”.
In the case of `COc1ccc(-c2noc(CCC(=O)NCCCN3CCC(Cc4ccccc4)CC3)n2)cc1`, the EC50 in the data set on BJ [3] is 23.2 µM (active); in the data set with BJ [4], > 150 µM (not active); with BJ [5] it was > 150 µM (not active); in data set [6], 18.5 µM (active). Moreover, the IC50 in [7] is > 20 µM (inactive). Besides, the AC50 is 4.03 µM (active) in [8], 30.4 µM (active) in data set [9] and 20.7 µM (active) in data set [10].
In the case of `C/C=C(\C)c1cc(=O)c2c(C)cc3c(c2o1)C(=O)c1c(O)c(C2CC(C)(N(C)C)C(O)C(C)O2)cc(C2CC(N(C)C)C(O)C(C)O2)c1C3=O` (configuration not stated), the GI50 in the data set with P388/ADR is 3.08 µM (inactive); with SN12K1 it was 1.26 µM (inactive); in the data set with P388, 0.964 µM (active).
Take `CC(C)=CC(=O)OC1C2C(C)C(=O)OC2C(O)C(C)C2C=CC(=O)C21C` (configuration not stated): the GI50 was 0.615 µM (active) with P388/ADR, 2.39 µM (inactive) with SN12K1 and 0.627 µM (active) with P388.
With `O=C(Cc1ccc(Cl)cc1)NNC(=O)Nc1cccc2ccccc12`, the values for the AC50 on Cytochrome P450 1A2 and on Cytochrome P450 2C9 were 2.51 µM (inconclusive) and “inconclusive”, respectively.
Regarding `O=C(CCc1ccccc1)NNC(=O)C1CCCCC1`, the AC50 entry at Cytochrome P450 2C9 is “inconclusive”.
For `Cn1cccc1/C=N/NC(=O)c1sc2ccccc2c1Cl`, the AC50 on Cytochrome P450 2D6 is 10 µM (inconclusive); at Cytochrome P450 2C9, “inconclusive”.
